Values of other authors in patent publication US20060073224A1, “Method of preparing Dioscorea tincture and uses thereof” (Omni Research Technology, priority 2004, published 2006).

Conditions: purified crystalline powder

Compound: C[C@@H]1CC[C@@]2(OC1)O[C@H]1C[C@H]3[C@@H]4CC=C5C[C@@H](O)CC[C@]5(C)[C@H]4CC[C@]3(C)[C@H]1[C@@H]2C [diosgenin]
- insolubility in alcohol: about 0.2%
